The target of data set [1] is T1, aldose reductase (Bos taurus, UniProt P16116).
T1 construct: preparation of the enzyme from bovine lens; from tissue; host or cells: bovine lens
Put plainly: in vitro aldose reductase inhibition (modified Hayman and Kinoshita procedure, enzyme from bovine lens). Format: biochemical. As to conditions: for inhibition at 10 µM: 10^-5 molar, read-out: % Inhibition at Different Molar Concentrations (in vitro), 10^-5; for inhibition at 1 µM: 10^-6 molar, read-out: % Inhibition at Different Molar Concentrations (in vitro), 10^-6; for inhibition at 0.1 µM: 10^-7 molar, read-out: % Inhibition at Different Molar Concentrations (in vitro), 10^-7. On the procedure:
In the present case the procedure of Hayman and Kinoshita is modified in that the final chromatography step is omitted in the preparation of the enzyme from bovine lens.
The following results were obtained when the foregoing listed compounds of formula I were evaluated in the above in vitro test.

Data set [2] in a line: hygroscopicity of analytical sample. Format: physicochemical. As to conditions: analytical sample dried under reduced pressure at 140° C. On the procedure:
3-(Ethoxycarbonyl)-4,7-dihydro-6-methoxy-4,7-dioxo-1H-cyclohepta[b]pyridine-1-acetic acid ethyl ester (2.5 g), described in example 5, was heated at reflux in 15% (w/v) aqueous HCl for 2 hr. The resulting precipitate was collected, washed with water and acetone, and recrystallized from water to give 1.8 g of the title compound; mp 272°-274° C.; nmr (DMSO-d6) δ3.95 (s, 3H), 5.5 (s, 2H), 7.28 & 7.75 (2d, 2H), 7.95 (s, 1H), 9.0 (1H, s); ir (Nujol*) 2900, 1700, 1565, 1265, 1165 cm^-1; uv λmax (MeOH) 347 nm (ε11,630), 306 (10,470), 266 (21,365), 249 (32,290). An analytical sample dried under reduced pressure at 140° C. was hygroscopic; Anal Calcd for C14 H11 NO7 : C, 55.09% H, 3.63% N, 4.59%; Found: C, 54.41% H, 3.60% N, 4.55%.

The test system of data set [3] is aldose reductase. As to conditions: Dvornik et al. 1973; Peterson et al. 1979; cited from earlier work.

This is an account of results in patent publication US4382088A, “4,7-Dihydro-4,7-dioxi-1H-cyclohepta[b]pyridine derivatives” (Ayerst, McKenna & Harrison, Inc., priority 1981, dated 1983).

Structures are written as SMILES.

For the molecule `O=C(O)Cn1cc(C(=O)O)c(=O)c2cc(OCc3ccccc3)c(=O)ccc21` [Example 8, 6-Benzyloxy-3-carboxy-4,7-dihydro-4,7-dioxo-1H-cyclohepta[b]pyridine-1-acetic Acid], on aldose reductase [1], the inhibition at 10 µM is 88%, the inhibition at 1 µM came to 79% and the inhibition at 0.1 µM came to 37%.

Take `CCOC(=O)COc1cc2c(=O)c(C(=O)OCC)cn(CC(=O)OCC)c2ccc1=O` [Example 5 (R^3 = OCH2 COOC2 H5), 3-(ethoxycarbonyl)-6-[(2-ethoxy-2-oxoethyl)oxy]-4,7-dihydro-4,7-dioxo-1H-cyclohepta[b]pyridine-1-acetic acid ethyl ester]: the inhibition at 10 µM on aldose reductase [1] was 40%.

Turning to `COc1cc2c(=O)c(C(=O)O)cn(CC(=O)O)c2ccc1=O` [Example 7 (R^3 = OCH3), 3-Carboxy-4,7-dihydro-6-methoxy-4,7-dioxo-1H-cyclohepta[b]pyridine-1-aceticAcid], at aldose reductase [1], the inhibition at 10 µM was 89%, the inhibition at 1 µM is 79% and the inhibition at 0.1 µM was found to be 30%. For the same molecule, in data set [2], the hygroscopicity entry is listed as “hygroscopic”.

On to `O=C(O)CN1C(=O)c2cccc3cccc(c23)C1=O` [1,3-Dioxo-1H-benz[de]isoquinoline-2(3H)-acetic acid], for which, in the data set on aldose reductase [3], the “aldose reductase inhibition reported in the literature, in words” value is “effective inhibitor of aldose reductase”.

With `O=C(O)COc1cc2c(=O)c(C(=O)O)cn(CC(=O)O)c2ccc1=O` [Example 7 (R^3 = OCH2 COOH), 3-carboxy-6-[(carboxymethyl)oxy]-4,7-dihydro-4,7-dioxo-1H-cyclohepta[b]pyridine-1-acetic acid monohydrate], at aldose reductase [1], the inhibition at 10 µM came to 97%, the inhibition at 1 µM was found to be 88% and the inhibition at 0.1 µM came out at 31%.

Take `O=C1NC(=O)[C@@]2(CCOc3ccc(F)cc32)N1` [sorbinil, (S)-6-Fluoro-2,3-dihydrospiro(4H-1-benzopyran-4,4'-imidazolidine)-2',5'-dione]: the “aldose reductase inhibition reported in the literature, in words” value in the data set with aldose reductase [3] is on record as “aldose reductase inhibiting properties”.
